In patent publication US10114013B2, “Method for detection of coenzyme Q10” (Berg LLC, priority 2012, dated 2018):
“And” between values parts separate entries of the source, which are not always exact repeats. Equal values may be shown once.

Key:
PaCa2 cells [1] = assay: CoQ10 level in PaCa2 cells after CoQ10 treatment; Buffer A/B/C extraction, UV spectrophotometry at 275 nm; assay type: in vitro ADME, human; conditions: 100 μM CoQ10 in isopropanol, OD275 detection, replicates 1-3
Description: (§1) The assay for quantitation of CoQ10 was used to determine the CoQ10 levels in various cells lines after CoQ10 treatment for various times. The cell lines used in the studies were the normal human aortic smooth muscle cells (HASMC), the hepatic cancer cell line HepG2, and the human pancreatic carcinoma cell line PaCa2. All cells lines are commercially available and were maintained according to instruction from the manufacturer/supplier of the cell lines.
In the experimental trials, about 1×10^6 HASMC, HepG2, or PaCa2 cells were plated into each well of a 6 well plate. […] Immediately after trypsinization, the cells were counted to determine the total number of viable cells in the sample. […]
The vials were incubated at 65° C. for 2 minutes in a water bath, with gentle mixing at about half way through the incubation. […] The solution was cooled to room temperature and a 75 μL aliquot of the upper phase was placed in a quartz cuvette and analyzed by UV spectrophotometry at a wavelength of 275 nm. […]
For quantitative assessment of CoQ10 in the biological samples, a standard curve was generated essentially as set forth above (Example 2). […] Each of the samples from the serial dilution was measured at a wavelength of 275 nm in a UV spectrometer and plotted on a graph.
A power series was used to fit the standard curve from the standard and an equation was determined. […]

PaCa2 cells [2] = assay: CoQ10 level in PaCa2 cells after CoQ10 treatment; extraction with methanol alone, LC/MS/MS detection; assay type: in vitro ADME, human; conditions: 100 μM CoQ10 in isopropanol, replicates 1-3
Procedure: (§2) To further validate the utility of the spectrophotometric method for the quantitative assessment of CoQ10 in biological samples, the experiment described above was repeated using HASMC, HepG2, and PaCa2 cell lines. Further, a second set of cell samples were prepared using each of the three cell types for analysis to determine CoQ10 levels using LC/MS/MS methods routinely used in the art. Briefly, cells were plated and treated with CoQ10 in isopropanol or the CoQ10 proprietary delivery formulation as set forth above, and harvested at 3, 6, or 24 hours after plating. Cell pellets were either extracted using the method set forth above, resuspending the cells in Buffers A and B, and extracting the CoQ10 with Buffer C, or the cell pellets were sent to a diagnostic laboratory (IriSys Research & Development Inc) for quantitative assessment of CoQ10 using extraction with methanol alone followed by LC/MS/MS detection.

HepG2 cells [3] = assay: CoQ10 level in HepG2 cells after CoQ10 treatment; Buffer A/B/C extraction, UV spectrophotometry at 275 nm; assay type: in vitro ADME; conditions: for average level of CoQ10 in cells: Hep2G cells; for CoQ10 / Conc (pM/cell): HepG2 cells, OD275 detection, replicates 1-3
Procedure: as §1
200 μl of various concentrations of CoQ10 in Buffer A, or Buffer A alone, were aliquoted into glass vials and 10 μl of Buffer B was added to each vial. Cells treated with various concentrations of CoQ10 were collected at predetermined time points and washed. Cell pellet samples (e.g., about 10^5-10^7 cells) were combined with 200 μl of Buffer A and 10 μl of Buffer B, and the cell pellets were resuspended in the buffer mixture. The sample mixture turned opaque upon mixing Buffers A and B with cells. The mixtures were transferred into glass vials.
The glass vials from step 2 were warmed to 65° C. for 1 minute. The samples turned clear upon heating, and again became opaque upon cooling to room temperature.
A 200 μl aliquot of Buffer C was added to each vial. The vials were again warmed to 65° C. The solution in the vials spontaneously partitioned into two phases, with the second extraction buffer layer (upper layer) containing substantially all of the CoQ10 material.
A 50 μl sample of the upper extraction layer was removed and analyzed on a UV spectrometer at 275 nm. The amount of CoQ10 in each sample was determined by comparison to a standard curve.
In the experimental trials, about 1×10^6 HASMC, HepG2, or PaCa2 cells were plated into each well of a 6 well plate. At the time of plating, the cells were treated with defined concentrations of CoQ10, in triplicate, in isopropanol or a proprietary CoQ10 delivery formulation for 3, 6, or 24 hours. After the defined incubation time, the cells were washed with cold TPBS (PBS with 100 mM Tris, pH 7.4), harvested by trypsinization, washed (2×) with 1 ml of TPBS, and pelleted by centrifugation at 1,500 RPM. Immediately after trypsinization, the cells were counted to determine the total number of viable cells in the sample.
Cell pellets were resuspended in 200 μL of Buffer A (first extraction buffer) and 10 μL of Buffer B (surfactant/detergent). Upon addition of Buffer B, the sample became opaque and a precipitate formed. The resuspended cells were transferred to a borosilicate vial. For control samples not containing cells, the CoQ10 containing solution was added to a glass vial and hexane was added to bring the volume to 200 μl, and 10 μl of Buffer B was then added.
The vials were incubated at 65° C. for 2 minutes in a water bath, with gentle mixing at about half way through the incubation. The sample changed from cloudy to clear during the incubation. The sample was removed from the water bath and 200 μL of Buffer C (second extraction buffer) was added to the vial. The sample partitioned into two phases, polar and non-polar. The top, non-polar, layer was clear, while a white precipitate formed the bottom of the vial. The sample was again heated at 65° C. for 1 minute with gentle mixing about half way through the incubation. The solution was cooled to room temperature and a 75 μL aliquot of the upper phase was placed in a quartz cuvette and analyzed by UV spectrophotometry at a wavelength of 275 nm. The absorption was documented.
For quantitative assessment of CoQ10 in the biological samples, a standard curve was generated essentially as set forth above (Example 2). For each independent determination of CoQ10, the standard curve was generated by making a 50 μM CoQ10 stock solution in hexane and serially diluting of the stock material. Each of the samples from the serial dilution was measured at a wavelength of 275 nm in a UV spectrometer and plotted on a graph. […]

HepG2 cells [4] = assay: CoQ10 level in HepG2 cells after CoQ10 treatment; extraction with methanol alone, LC/MS/MS detection; assay type: in vitro ADME; conditions: 100 μM CoQ10 in isopropanol, replicates 1-3
Procedure: as §2

CoQ10 (PaCa2 cells [1]): 28.46 µM and 12.5 µM and 4.05 µM | CoQ10 (PaCa2 cells [2]): 0.371 µM and 1.917 µM and 1.186 µM | average level of CoQ10 in cells (HepG2 cells [3]; 50 μM in propanol, 3 hours): 14.40 pM/cell | average level of CoQ10 in cells (HepG2 cells [3]; 50 μM in propanol, 6 hours): 27.07 pM/cell | average level of CoQ10 in cells (HepG2 cells [3]; 50 μM in propanol, 24 hours): 37.04 pM/cell | average level of CoQ10 in cells (HepG2 cells [3]; 100 μM in propanol, 3 hours): 25.20 pM/cell | average level of CoQ10 in cells (HepG2 cells [3]; 100 μM in propanol, 6 hours): 34.74 pM/cell | average level of CoQ10 in cells (HepG2 cells [3]; 100 μM in propanol, 24 hours): 45.43 pM/cell | CoQ10 (HepG2 cells [3]; 50 μM CoQ10 in isopropanol): 39.76 µM and 41.84 µM and 51.45 µM | CoQ10 (HepG2 cells [3]; 100 μM CoQ10 in isopropanol): 36.08 µM and 49.71 µM and 50.51 µM | CoQ10 (HepG2 cells [4]): 2.061 µM and 1.223 µM and 1.599 µM | Conc (pM/cell) (HepG2 cells [4]): 0.34 pM/cell and 0.24 pM/cell (2×)
SMILES: COC1=C(OC)C(=O)C(C/C=C(\C)CC/C=C(\C)CC/C=C(\C)CC/C=C(\C)CC/C=C(\C)CC/C=C(\C)CC/C=C(\C)CC/C=C(\C)CC/C=C(\C)CCC=C(C)C)=C(C)C1=O [CoQ10, Coenzyme Q10]
Conc (pM/cell) (PaCa2 cells [1]): 1.56 pM/cell and 9.09 pM/cell and 3.2 pM/cell | Conc (pM/cell) (PaCa2 cells [2]): 0.31 pM/cell and 0.17 pM/cell and 0.12 pM/cell | Conc (pM/cell) (HepG2 cells [3]; 50 μM CoQ10 in isopropanol): 29.6 pM/cell and 30.7 pM/cell and 51.9 pM/cell | Conc (pM/cell) (HepG2 cells [3]; 100 μM CoQ10 in isopropanol): 70.7 pM/cell and 121.2 pM/cell and 101 pM/cell
